{"source": "patent US11524966B1", "about": "(Valo Early Discovery, Inc., priority 2017, dated 2022)"}
{"biological_target": "T1, USP25 (USP25-His6, Boston Biochem E-546) (Homo sapiens, UniProt Q9UHP3)", "T1 construct": "His6; purchased Boston Biochem E-546", "T1 sequence (Q9UHP3 1-1055)": "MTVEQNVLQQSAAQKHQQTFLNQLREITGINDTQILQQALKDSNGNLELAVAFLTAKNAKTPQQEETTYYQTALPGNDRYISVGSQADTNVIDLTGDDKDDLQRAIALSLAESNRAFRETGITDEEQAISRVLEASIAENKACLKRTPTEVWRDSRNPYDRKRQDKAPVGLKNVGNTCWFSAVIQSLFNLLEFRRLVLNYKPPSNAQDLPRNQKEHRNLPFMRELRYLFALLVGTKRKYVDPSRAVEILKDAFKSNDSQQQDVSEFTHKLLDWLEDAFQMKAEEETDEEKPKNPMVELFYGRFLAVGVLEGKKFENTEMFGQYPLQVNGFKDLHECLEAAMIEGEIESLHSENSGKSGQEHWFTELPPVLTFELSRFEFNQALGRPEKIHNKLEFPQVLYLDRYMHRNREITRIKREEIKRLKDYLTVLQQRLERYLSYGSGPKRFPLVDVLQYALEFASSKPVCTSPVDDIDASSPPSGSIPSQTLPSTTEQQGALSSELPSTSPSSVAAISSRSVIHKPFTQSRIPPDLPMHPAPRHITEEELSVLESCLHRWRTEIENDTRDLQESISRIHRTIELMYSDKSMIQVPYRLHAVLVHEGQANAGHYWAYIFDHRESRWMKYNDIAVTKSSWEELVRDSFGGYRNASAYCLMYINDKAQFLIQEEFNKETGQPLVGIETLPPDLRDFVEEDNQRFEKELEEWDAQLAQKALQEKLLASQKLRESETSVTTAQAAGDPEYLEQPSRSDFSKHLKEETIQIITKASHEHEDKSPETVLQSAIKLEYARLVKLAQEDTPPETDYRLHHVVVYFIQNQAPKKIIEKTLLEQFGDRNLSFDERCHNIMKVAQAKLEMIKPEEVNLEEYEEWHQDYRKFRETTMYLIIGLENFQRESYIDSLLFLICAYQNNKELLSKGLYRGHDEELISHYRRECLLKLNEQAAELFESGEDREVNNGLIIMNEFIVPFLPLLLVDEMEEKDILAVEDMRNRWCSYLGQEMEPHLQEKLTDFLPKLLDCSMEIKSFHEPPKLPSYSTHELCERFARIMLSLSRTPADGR", "assay": "Ubiquitin-Rhodamine 110 Assay for USP25 Activity, Example A-2", "format": "biochemical", "conditions": "Ub-Rh110 assay, Example A-2; read-out: USP25 A-2 IC50 range", "method_in_brief": "(§1)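 75 pM USP25-His6 was preincubated 30 min with compound (10-point 3-fold series, 25 μM–1.3 nM) in pH 8.0 Tris buffer with BME, BGG and Triton X-100. Then 25 nM Ub-Rh110 (<<Km) was added for 45 min at room temperature, stopped with citric acid, fluorescence read at 485/535 nm, IC50 by 4-parameter fit.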", "units": {"IC50": "nM"}}
{"smiles": "Cc1ccc2c(N)c(C(=O)N[C@H]3COc4cc(N5CCN[C@@H](C)[C@H]5C)ccc4C3)sc2n1", "note": "(single isomer, unassigned) [Example 1-7]", "IC50": "1 to 50"}
{"biological_target": "T1, USP25 (USP25-His6, Boston Biochem E-546)", "assay": "Ubiquitin-Rhodamine 110 Assay for USP25 Activity, Example A-2", "format": "biochemical", "conditions": "Ubiquitin-Rhodamine 110 assay, format Example A-2; read-out: USP25 A-2 IC50 range", "method_in_brief": "as §1", "units": {"IC50": "nM"}}
{"smiles": "Cc1nc2sc(C(=O)N[C@H]3CCc4cc(N5CCNCC5)ccc4C3)c(N)c2s1", "note": "(single isomer, unassigned) [Example 11-33]", "IC50": "> 2000"}
{"smiles": "Cc1nc2sc(C(=O)N[C@@H]3CCc4cc(N5CC6CCC(C5)N6)ccc4C3)c(N)c2s1", "note": "(single isomer, unassigned) [Example 12-2]", "IC50": "200 to 2000"}
{"smiles": "Cc1ccc2c(N)c(C(=O)N[C@@H]3CCc4c(ccc(N5CC6CCC(C5)N6)c4C#N)C3)sc2n1", "note": "(single isomer, unassigned) [Example 14-1]", "IC50": "50 to 200"}
{"smiles": "Cc1ccc2c(N)c(C(=O)N[C@H]3CCc4c(ccc(N5CC6CCC(C5)N6)c4C#N)C3)sc2n1", "note": "(single isomer, unassigned) [Example 14-2]", "IC50": "> 2000"}
{"smiles": "Cc1ccc2c(N)c(C(=O)N[C@@H]3CCc4cc(N5CC6CCC(C5)N6)c(C#N)cc4C3)sc2n1", "note": "(single isomer, unassigned) [Example 14-3]", "IC50": "> 2000"}
{"smiles": "Cc1ccc2c(N)c(C(=O)N[C@H]3CCc4cc(N5CC6CCC(C5)N6)c(C#N)cc4C3)sc2n1", "note": "(single isomer, unassigned) [Example 14-4]", "IC50": "50 to 200"}
{"smiles": "Cc1cnc2c(N)c(C(=O)N[C@@H]3CCc4c(ccc(N5CC6CCC(C5)N6)c4C#N)C3)sc2n1", "note": "(single isomer, unassigned) [Example 14-5]", "IC50": "50 to 200"}
{"smiles": "Cc1cnc2c(N)c(C(=O)N[C@H]3CCc4c(ccc(N5CC6CCC(C5)N6)c4C#N)C3)sc2n1", "note": "(single isomer, unassigned) [Example 14-6]", "IC50": "> 2000"}
{"smiles": "Cc1cnc2c(N)c(C(=O)N[C@@H]3CCc4cc(N5CC6CCC(C5)N6)c(C#N)cc4C3)sc2n1", "note": "(single isomer, unassigned) [Example 14-7]", "IC50": "> 2000"}
{"smiles": "Cc1cnc2c(N)c(C(=O)N[C@H]3CCc4cc(N5CC6CCC(C5)N6)c(C#N)cc4C3)sc2n1", "note": "(single isomer, unassigned) [Example 14-8]", "IC50": "50 to 200"}
